Tests used:
Assay in all cases: post-emergence herbicidal activity, greenhouse
Format in all cases: in vivo
Canada Thistle = conditions: Table II
How it was run: (§1)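 Two- to three-week-old greenhouse plants, raised in soil pans, received a foliar atomizer spray containing roughly 0.4% w/w emulsifier mix. Visual injury versus unsprayed checks was recorded at about 2 and 4 weeks after treatment (WAT).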

Cocklebur = test system: Cocklebur
How it was run: as §1

Downy Brome = test system: Downy Brome
How it was run: as §1

Johnsongrass = conditions: Table II
How it was run: as §1

Large Crabgrass = conditions: Table III
How it was run: as §1

Morningglory = conditions: Table II; 2 WAT; 5.6 kg/h
How it was run: as §1

[1] = 2 WAT, 5.6 kg/h, formulated in anhydrous tetrahydrofuran
[2] = 2 WAT, 11.2 kg/h, formulated in anhydrous tetrahydrofuran
[3] = 4 WAT, 5.6 kg/h, formulated in anhydrous tetrahydrofuran
[4] = 4 WAT, 11.2 kg/h, formulated in anhydrous tetrahydrofuran
[5] = Table II, 2 WAT, 5.6 kg/h, formulated in anhydrous tetrahydrofuran
[6] = Table II, 2 WAT, 11.2 kg/h, formulated in anhydrous tetrahydrofuran
[7] = Table II, 4 WAT, 5.6 kg/h, formulated in anhydrous tetrahydrofuran
[8] = Table II, 4 WAT, 11.2 kg/h, formulated in anhydrous tetrahydrofuran
[9] = Table III, 2 WAT, 1.1 kg/h, formulated in anhydrous tetrahydrofuran
[10] = Table III, 2 WAT, 5.6 kg/h, formulated in anhydrous tetrahydrofuran
[11] = Table III, 2 WAT, .28 kg/h, formulated in anhydrous tetrahydrofuran
[12] = Table III, 4 WAT, 1.1 kg/h, formulated in anhydrous tetrahydrofuran
[13] = Table III, 4 WAT, 5.6 kg/h, formulated in anhydrous tetrahydrofuran
[14] = Table III, 4 WAT, .28 kg/h, formulated in anhydrous tetrahydrofuran

CCCCOC(=O)CNCP(=O)(O)O[Si](c1ccccc1)(c1ccccc1)C(C)(C)C [Ex. 6, Glycine, N--((([(1,1-Dimethylethyl)Diphenylsilyl]Oxy)Hydroxyphosphinyl)methyl)-Butyl Ester]
Plant Response Index (A) (Canada Thistle; 2 WAT, 5.6 kg/h): 0 (0-24% inhibition) | Plant Response Index (A) (Canada Thistle; [1]): 0 (0-24% inhibition) | Plant Response Index (A) (Canada Thistle; 2 WAT, 11.2 kg/h): 3 (75-99% inhibition) | Plant Response Index (A) (Canada Thistle; [2]): 0 (0-24% inhibition) | Plant Response Index (A) (Canada Thistle; 4 WAT, 5.6 kg/h): 1 (25-49% inhibition) | Plant Response Index (A) (Canada Thistle; [3]): 0 (0-24% inhibition) | Plant Response Index (A) (Canada Thistle; 4 WAT, 11.2 kg/h): 4 (100% inhibition) | Plant Response Index (A) (Canada Thistle; [4]): 1 (25-49% inhibition) | Plant Response Index (B) (Cocklebur; Table II, 2 WAT, 5.6 kg/h): 1 (25-49% inhibition) | Plant Response Index (B) (Cocklebur; [5]): 1 (25-49% inhibition) | Plant Response Index (B) (Cocklebur; Table II, 2 WAT, 11.2 kg/h): 2 (50-74% inhibition) | Plant Response Index (B) (Cocklebur; [6]): 1 (25-49% inhibition) | Plant Response Index (B) (Cocklebur; Table II, 4 WAT, 5.6 kg/h): 1 (25-49% inhibition) | Plant Response Index (B) (Cocklebur; [7]): 1 (25-49% inhibition) | Plant Response Index (B) (Cocklebur; Table II, 4 WAT, 11.2 kg/h): 2 (50-74% inhibition) | Plant Response Index (B) (Cocklebur; [8]): 2 (50-74% inhibition) | Plant Response Index (B) (Cocklebur; Table III, 2 WAT, 1.1 kg/h): 2 (50-74% inhibition) | Plant Response Index (B) (Cocklebur; [9]): 1 (25-49% inhibition) | Plant Response Index (B) (Cocklebur; Table III, 2 WAT, 5.6 kg/h): 3 (75-99% inhibition) | Plant Response Index (B) (Cocklebur; [10]): 2 (50-74% inhibition) | Plant Response Index (B) (Cocklebur; Table III, 2 WAT, .28 kg/h): 0 (0-24% inhibition) | Plant Response Index (B) (Cocklebur; [11]): 1 (25-49% inhibition) | Plant Response Index (B) (Cocklebur; Table III, 4 WAT, 1.1 kg/h): 2 (50-74% inhibition) | Plant Response Index (B) (Cocklebur; [12]): 1 (25-49% inhibition) | Plant Response Index (B) (Cocklebur; Table III, 4 WAT, 5.6 kg/h): 3 (75-99% inhibition) | Plant Response Index (B) (Cocklebur; [13]): 2 (50-74% inhibition) | Plant Response Index (B) (Cocklebur; [14]): 1 (25-49% inhibition) | Plant Response Index (J) (Downy Brome; Table II, 2 WAT, 5.6 kg/h): 0 (0-24% inhibition) | Plant Response Index (J) (Downy Brome; [5]): 0 (0-24% inhibition) | Plant Response Index (J) (Downy Brome; Table II, 2 WAT, 11.2 kg/h): 0 (0-24% inhibition) | Plant Response Index (J) (Downy Brome; [6]): 0 (0-24% inhibition) | Plant Response Index (J) (Downy Brome; Table II, 4 WAT, 5.6 kg/h): 0 (0-24% inhibition) | Plant Response Index (J) (Downy Brome; [7]): 0 (0-24% inhibition) | Plant Response Index (J) (Downy Brome; Table II, 4 WAT, 11.2 kg/h): 1 (25-49% inhibition) | Plant Response Index (J) (Downy Brome; [8]): 0 (0-24% inhibition) | Plant Response Index (J) (Downy Brome; Table III, 2 WAT, 1.1 kg/h): 1 (25-49% inhibition) | Plant Response Index (J) (Downy Brome; [9]): 1 (25-49% inhibition) | Plant Response Index (J) (Downy Brome; Table III, 2 WAT, 5.6 kg/h): 1 (25-49% inhibition) | Plant Response Index (J) (Downy Brome; [10]): 1 (25-49% inhibition) | Plant Response Index (J) (Downy Brome; Table III, 2 WAT, .28 kg/h): 1 (25-49% inhibition) | Plant Response Index (J) (Downy Brome; [11]): 0 (0-24% inhibition) | Plant Response Index (J) (Downy Brome; Table III, 4 WAT, 1.1 kg/h): 1 (25-49% inhibition) | Plant Response Index (J) (Downy Brome; [12]): 1 (25-49% inhibition) | Plant Response Index (J) (Downy Brome; Table III, 4 WAT, 5.6 kg/h): 3 (75-99% inhibition) | Plant Response Index (J) (Downy Brome; [13]): 2 (50-74% inhibition) | Plant Response Index (J) (Downy Brome; [14]): 0 (0-24% inhibition) | Plant Response Index (I) (Johnsongrass; 2 WAT, 5.6 kg/h): 0 (0-24% inhibition) | Plant Response Index (I) (Johnsongrass; [1]): 0 (0-24% inhibition) | Plant Response Index (I) (Johnsongrass; 2 WAT, 11.2 kg/h): 1 (25-49% inhibition) | Plant Response Index (I) (Johnsongrass; [2]): 0 (0-24% inhibition) | Plant Response Index (I) (Johnsongrass; 4 WAT, 5.6 kg/h): 2 (50-74% inhibition) | Plant Response Index (I) (Johnsongrass; [3]): 1 (25-49% inhibition) | Plant Response Index (I) (Johnsongrass; 4 WAT, 11.2 kg/h): 0 (0-24% inhibition) | Plant Response Index (I) (Johnsongrass; [4]): 1 (25-49% inhibition) | Plant Response Index (T) (Large Crabgrass; 2 WAT, 1.1 kg/h): 4 (100% inhibition) | Plant Response Index (T) (Large Crabgrass; 2 WAT, 1.1 kg/h, formulated in anhydrous tetrahydrofuran): 4 (100% inhibition) | Plant Response Index (T) (Large Crabgrass; 2 WAT, 5.6 kg/h): 4 (100% inhibition) | Plant Response Index (T) (Large Crabgrass; [1]): 4 (100% inhibition) | Plant Response Index (T) (Large Crabgrass; 2 WAT, .28 kg/h): 4 (100% inhibition) | Plant Response Index (T) (Large Crabgrass; 2 WAT, .28 kg/h, formulated in anhydrous tetrahydrofuran): 1 (25-49% inhibition) | Plant Response Index (T) (Large Crabgrass; 4 WAT, 1.1 kg/h): 4 (100% inhibition) | Plant Response Index (T) (Large Crabgrass; 4 WAT, 1.1 kg/h, formulated in anhydrous tetrahydrofuran): 4 (100% inhibition) | Plant Response Index (T) (Large Crabgrass; 4 WAT, 5.6 kg/h): 4 (100% inhibition) | Plant Response Index (T) (Large Crabgrass; [3]): 4 (100% inhibition) | Plant Response Index (T) (Large Crabgrass; 4 WAT, .28 kg/h, formulated in anhydrous tetrahydrofuran): 0 (0-24% inhibition) | Plant Response Index (D) (Morningglory): 2 (50-74% inhibition)
